{"source": "paper PMC11864979", "about": "“First-in-class ultralong-target-residence-time p38α inhibitors as a mitosis-targeted therapy for colorectal cancer” (Nature Cancer, 2025)", "experiment_in_all_cases": "selectivity profiling in a panel of 340 wild-type kinases (Reaction Biology Europe)", "format_in_all_cases": "binding", "key": {"340 wild-type kinases [1]": {"target": "T1, 340 wild-type kinases (Homo sapiens, UniProt Q9H093)", "T1 construct": "purchased Reaction Biology Europe", "T1 sequence (Q9H093 1-628)": "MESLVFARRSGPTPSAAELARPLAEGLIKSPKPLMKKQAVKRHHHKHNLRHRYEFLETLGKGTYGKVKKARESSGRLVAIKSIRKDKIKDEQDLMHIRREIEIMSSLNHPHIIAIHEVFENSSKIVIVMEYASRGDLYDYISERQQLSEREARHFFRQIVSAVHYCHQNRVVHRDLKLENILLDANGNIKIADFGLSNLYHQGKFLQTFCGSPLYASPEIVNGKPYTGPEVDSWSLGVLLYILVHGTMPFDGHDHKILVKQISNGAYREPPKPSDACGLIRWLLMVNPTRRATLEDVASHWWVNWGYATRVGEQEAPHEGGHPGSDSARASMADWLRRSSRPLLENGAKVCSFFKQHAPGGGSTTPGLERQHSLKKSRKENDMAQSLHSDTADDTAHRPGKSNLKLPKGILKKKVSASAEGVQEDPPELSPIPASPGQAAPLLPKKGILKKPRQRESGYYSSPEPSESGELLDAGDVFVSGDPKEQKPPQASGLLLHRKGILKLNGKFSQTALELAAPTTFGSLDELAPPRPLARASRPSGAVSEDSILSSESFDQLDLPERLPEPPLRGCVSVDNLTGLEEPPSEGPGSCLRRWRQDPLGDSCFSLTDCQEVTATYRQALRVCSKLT"}, "340 wild-type kinases [2]": {"target": "T2, 340 wild-type kinases (Homo sapiens, UniProt Q9P289)", "T2 construct": "purchased Reaction Biology Europe", "T2 sequence (Q9P289 whole entry)": "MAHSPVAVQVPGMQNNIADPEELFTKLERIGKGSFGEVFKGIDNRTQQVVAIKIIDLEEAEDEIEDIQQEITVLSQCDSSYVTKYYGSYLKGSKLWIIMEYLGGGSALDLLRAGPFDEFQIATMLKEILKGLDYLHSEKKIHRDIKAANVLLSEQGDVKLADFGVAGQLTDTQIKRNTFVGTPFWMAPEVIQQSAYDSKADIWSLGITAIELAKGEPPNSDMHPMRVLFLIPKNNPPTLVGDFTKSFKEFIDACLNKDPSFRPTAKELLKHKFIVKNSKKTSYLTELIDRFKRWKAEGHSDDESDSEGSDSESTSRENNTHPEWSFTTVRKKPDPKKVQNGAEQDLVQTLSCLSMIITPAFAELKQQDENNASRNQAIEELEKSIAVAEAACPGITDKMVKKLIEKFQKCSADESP"}, "340 wild-type kinases [3]": {"target": "T3, 340 wild-type kinases (Homo sapiens, UniProt O75582)", "T3 construct": "purchased Reaction Biology Europe", "T3 sequence (O75582 whole entry)": "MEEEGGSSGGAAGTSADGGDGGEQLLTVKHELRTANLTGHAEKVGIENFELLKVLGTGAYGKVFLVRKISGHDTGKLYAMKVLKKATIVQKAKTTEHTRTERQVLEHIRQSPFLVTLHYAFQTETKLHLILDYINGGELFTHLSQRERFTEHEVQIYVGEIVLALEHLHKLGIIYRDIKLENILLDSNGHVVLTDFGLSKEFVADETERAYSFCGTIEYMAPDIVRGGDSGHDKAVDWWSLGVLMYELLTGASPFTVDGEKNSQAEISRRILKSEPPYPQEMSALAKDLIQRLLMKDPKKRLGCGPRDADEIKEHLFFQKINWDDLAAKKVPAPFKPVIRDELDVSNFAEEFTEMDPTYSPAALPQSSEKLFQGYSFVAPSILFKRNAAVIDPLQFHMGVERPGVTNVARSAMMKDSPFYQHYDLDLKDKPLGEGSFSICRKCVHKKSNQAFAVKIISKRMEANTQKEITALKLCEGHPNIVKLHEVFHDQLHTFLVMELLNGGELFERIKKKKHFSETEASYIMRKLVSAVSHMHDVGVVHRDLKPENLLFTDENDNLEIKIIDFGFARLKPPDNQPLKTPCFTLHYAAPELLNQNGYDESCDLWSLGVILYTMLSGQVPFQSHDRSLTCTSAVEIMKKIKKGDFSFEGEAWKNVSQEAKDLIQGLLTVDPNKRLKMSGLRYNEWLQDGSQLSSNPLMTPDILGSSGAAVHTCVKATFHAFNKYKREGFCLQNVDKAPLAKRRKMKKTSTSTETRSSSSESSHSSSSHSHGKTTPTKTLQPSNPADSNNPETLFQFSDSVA"}, "340 wild-type kinases [4]": {"target": "T4, 340 wild-type kinases (Homo sapiens, UniProt P36897)", "T4 construct": "purchased Reaction Biology Europe", "T4 sequence (P36897 34-503)": "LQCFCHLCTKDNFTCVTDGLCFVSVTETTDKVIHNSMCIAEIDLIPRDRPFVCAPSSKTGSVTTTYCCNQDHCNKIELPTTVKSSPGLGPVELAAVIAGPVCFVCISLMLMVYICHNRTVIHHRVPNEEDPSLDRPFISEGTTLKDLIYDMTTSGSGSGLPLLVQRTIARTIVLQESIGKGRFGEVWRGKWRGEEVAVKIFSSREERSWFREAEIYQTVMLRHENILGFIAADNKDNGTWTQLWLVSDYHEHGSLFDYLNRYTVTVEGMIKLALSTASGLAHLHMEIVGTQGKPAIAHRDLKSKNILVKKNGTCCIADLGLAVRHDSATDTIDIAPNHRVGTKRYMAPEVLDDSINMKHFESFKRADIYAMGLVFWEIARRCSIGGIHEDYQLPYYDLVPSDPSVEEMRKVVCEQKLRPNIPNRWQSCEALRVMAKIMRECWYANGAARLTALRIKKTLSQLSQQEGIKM"}, "340 wild-type kinases [5]": {"target": "T5, 340 wild-type kinases (Homo sapiens, UniProt Q96L34)", "T5 construct": "purchased Reaction Biology Europe", "T5 sequence (Q96L34 1-752)": "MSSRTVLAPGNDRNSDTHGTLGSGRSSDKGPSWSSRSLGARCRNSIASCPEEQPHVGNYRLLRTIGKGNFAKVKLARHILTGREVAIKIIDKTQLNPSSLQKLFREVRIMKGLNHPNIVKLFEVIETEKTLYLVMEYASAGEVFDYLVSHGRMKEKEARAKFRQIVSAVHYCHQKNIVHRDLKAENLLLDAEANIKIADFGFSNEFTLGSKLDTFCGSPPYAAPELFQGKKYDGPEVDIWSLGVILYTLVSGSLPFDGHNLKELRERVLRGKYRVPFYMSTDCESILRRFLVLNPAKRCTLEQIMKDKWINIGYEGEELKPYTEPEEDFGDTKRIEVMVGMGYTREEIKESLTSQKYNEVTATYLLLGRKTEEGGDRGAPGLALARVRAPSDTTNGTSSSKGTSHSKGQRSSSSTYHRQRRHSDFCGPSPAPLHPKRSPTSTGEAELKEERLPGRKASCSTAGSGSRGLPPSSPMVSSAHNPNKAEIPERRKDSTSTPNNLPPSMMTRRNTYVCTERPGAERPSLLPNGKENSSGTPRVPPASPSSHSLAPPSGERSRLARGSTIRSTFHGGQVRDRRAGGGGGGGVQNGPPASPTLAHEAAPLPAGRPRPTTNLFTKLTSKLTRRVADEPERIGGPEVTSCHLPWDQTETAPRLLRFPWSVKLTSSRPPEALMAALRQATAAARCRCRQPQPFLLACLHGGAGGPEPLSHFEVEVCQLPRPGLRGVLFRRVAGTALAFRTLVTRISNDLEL"}, "340 wild-type kinases [6]": {"target": "T6, 340 wild-type kinases (Homo sapiens, UniProt Q06187)", "T6 construct": "purchased Reaction Biology Europe", "T6 sequence (Q06187 whole entry)": "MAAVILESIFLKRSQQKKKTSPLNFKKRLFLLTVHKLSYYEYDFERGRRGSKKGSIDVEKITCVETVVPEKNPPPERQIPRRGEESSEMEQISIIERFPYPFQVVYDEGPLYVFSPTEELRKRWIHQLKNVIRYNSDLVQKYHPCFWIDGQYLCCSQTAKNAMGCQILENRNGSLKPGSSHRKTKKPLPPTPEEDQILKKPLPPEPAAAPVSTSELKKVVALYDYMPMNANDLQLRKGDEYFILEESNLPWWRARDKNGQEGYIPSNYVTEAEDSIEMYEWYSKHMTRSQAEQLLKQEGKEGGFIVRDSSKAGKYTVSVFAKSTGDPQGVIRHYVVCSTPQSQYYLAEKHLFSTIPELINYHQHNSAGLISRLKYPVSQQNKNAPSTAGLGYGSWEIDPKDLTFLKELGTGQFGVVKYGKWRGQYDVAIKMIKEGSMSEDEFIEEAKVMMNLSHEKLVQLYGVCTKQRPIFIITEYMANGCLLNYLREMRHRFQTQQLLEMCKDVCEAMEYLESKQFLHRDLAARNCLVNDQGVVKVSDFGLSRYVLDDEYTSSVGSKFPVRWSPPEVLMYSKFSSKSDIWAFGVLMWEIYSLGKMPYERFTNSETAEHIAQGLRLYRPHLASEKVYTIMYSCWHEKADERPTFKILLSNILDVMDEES"}, "340 wild-type kinases [7]": {"target": "T7, 340 wild-type kinases (Homo sapiens, UniProt P11802)", "T7 construct": "purchased Reaction Biology Europe", "T7 sequence (P11802 whole entry)": "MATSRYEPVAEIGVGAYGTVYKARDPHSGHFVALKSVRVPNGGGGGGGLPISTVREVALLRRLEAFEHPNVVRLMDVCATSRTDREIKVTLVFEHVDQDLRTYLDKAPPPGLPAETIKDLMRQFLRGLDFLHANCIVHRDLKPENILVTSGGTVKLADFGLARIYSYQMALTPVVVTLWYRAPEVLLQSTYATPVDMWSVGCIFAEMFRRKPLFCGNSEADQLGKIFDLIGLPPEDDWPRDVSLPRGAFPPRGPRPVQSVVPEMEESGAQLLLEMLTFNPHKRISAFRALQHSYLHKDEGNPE"}}, "note": "Read-outs that look alike come from different tables or passages of the source.", "data": [{"smiles": "CNC(=O)c1ccc2c(c1)C(=O)c1ccc(Nc3ccc(F)c(NC(=O)C4CC4)c3)cc1CC2", "note": "[Compound 2015]", "values": [{"measurement": "remaining activity at 0.2 µM", "setting": "340 wild-type kinases [1]; 0.2 µM 2015, read-out: SNARK residual activity", "value": 97, "unit": "%"}, {"measurement": "remaining activity at 1 µM", "setting": "340 wild-type kinases [1]; 1 µM 2015, read-out: SNARK residual activity", "value": 92.5, "unit": "%"}, {"measurement": "remaining activity at 0.2 µM", "setting": "340 wild-type kinases [1]; SNARK, 0.2 µM, read-out: residual activity", "value": 97, "unit": "%"}, {"measurement": "remaining activity at 1 µM", "setting": "340 wild-type kinases [1]; SNARK, 1 µM, read-out: residual activity", "value": 92.5, "unit": "%"}, {"measurement": "remaining activity at 0.2 µM", "setting": "340 wild-type kinases [2]; 0.2 µM 2015, read-out: MST4 residual activity", "value": 78.4, "unit": "%"}, {"measurement": "remaining activity at 1 µM", "setting": "340 wild-type kinases [2]; 1 µM 2015, read-out: MST4 residual activity", "value": 69.9, "unit": "%"}, {"measurement": "remaining activity at 0.2 µM", "setting": "340 wild-type kinases [2]; MST4, 0.2 µM, read-out: residual activity", "value": 78.3, "unit": "%"}, {"measurement": "remaining activity at 1 µM", "setting": "340 wild-type kinases [2]; MST4, 1 µM, read-out: residual activity", "value": 69.9, "unit": "%"}, {"measurement": "remaining activity at 0.2 µM", "setting": "340 wild-type kinases [3]; 0.2 µM 2015, read-out: RPS6KA5 residual activity", "value": 93.6, "unit": "%"}, {"measurement": "remaining activity at 0.2 µM", "setting": "340 wild-type kinases [3]; RPS6KA5, 0.2 µM, read-out: residual activity", "value": 93.6, "unit": "%"}, {"measurement": "remaining activity at 1 µM", "setting": "340 wild-type kinases [3]; RPS6KA5, 1 µM, read-out: residual activity", "value": 90.2, "unit": "%"}, {"measurement": "remaining activity at 0.2 µM", "setting": "340 wild-type kinases [4]; 0.2 µM 2015, read-out: TGFBR1 residual activity", "value": 84.1, "unit": "%"}, {"measurement": "remaining activity at 1 µM", "setting": "340 wild-type kinases [4]; 1 µM 2015, read-out: TGFBR1 residual activity", "value": 90.9, "unit": "%"}, {"measurement": "remaining activity at 0.2 µM", "setting": "340 wild-type kinases [4]; TGFBR1, 0.2 µM, read-out: residual activity", "value": 84.1, "unit": "%"}, {"measurement": "remaining activity at 1 µM", "setting": "340 wild-type kinases [4]; TGFBR1, 1 µM, read-out: residual activity", "value": 90.9, "unit": "%"}, {"measurement": "remaining activity at 0.2 µM", "setting": "340 wild-type kinases [5]; 0.2 µM 2015, read-out: MARK4 residual activity", "value": 94.8, "unit": "%"}, {"measurement": "remaining activity at 1 µM", "setting": "340 wild-type kinases [5]; 1 µM 2015, read-out: MARK4 residual activity", "value": 84.1, "unit": "%"}, {"measurement": "remaining activity at 0.2 µM", "setting": "340 wild-type kinases [5]; MARK4, 0.2 µM, read-out: residual activity", "value": 94.8, "unit": "%"}, {"measurement": "remaining activity at 1 µM", "setting": "340 wild-type kinases [5]; MARK4, 1 µM, read-out: residual activity", "value": 84.1, "unit": "%"}, {"measurement": "remaining activity at 0.2 µM", "setting": "340 wild-type kinases [6]; 0.2 µM 2015, read-out: BTK residual activity", "value": 116, "unit": "%"}, {"measurement": "remaining activity at 1 µM", "setting": "340 wild-type kinases [6]; 1 µM 2015, read-out: BTK residual activity", "value": 106, "unit": "%"}, {"measurement": "remaining activity at 0.2 µM", "setting": "340 wild-type kinases [6]; BTK, 0.2 µM, read-out: residual activity", "value": 116, "unit": "%"}, {"measurement": "remaining activity at 1 µM", "setting": "340 wild-type kinases [6]; BTK, 1 µM, read-out: residual activity", "value": 106, "unit": "%"}, {"measurement": "remaining activity at 0.2 µM", "setting": "340 wild-type kinases [7]; 0.2 µM 2015, read-out: CDK4/CycD1 residual activity", "value": 117, "unit": "%"}, {"measurement": "remaining activity at 0.2 µM", "setting": "340 wild-type kinases [7]; 0.2 µM 2015, read-out: CDK4/CycD2 residual activity", "value": 109, "unit": "%"}, {"measurement": "remaining activity at 0.2 µM", "setting": "340 wild-type kinases [7]; 0.2 µM 2015, read-out: CDK4/CycD3 residual activity", "value": 70.3, "unit": "%"}, {"measurement": "remaining activity at 1 µM", "setting": "340 wild-type kinases [7]; 1 µM 2015, read-out: CDK4/CycD1 residual activity", "value": 98.4, "unit": "%"}, {"measurement": "remaining activity at 1 µM", "setting": "340 wild-type kinases [7]; 1 µM 2015, read-out: CDK4/CycD2 residual activity", "value": 103, "unit": "%"}, {"measurement": "remaining activity at 1 µM", "setting": "340 wild-type kinases [7]; 1 µM 2015, read-out: CDK4/CycD3 residual activity", "value": 81.7, "unit": "%"}, {"measurement": "remaining activity at 0.2 µM", "setting": "340 wild-type kinases [7]; CDK4/CycD1, 0.2 µM, read-out: residual activity", "value": 117, "unit": "%"}, {"measurement": "remaining activity at 0.2 µM", "setting": "340 wild-type kinases [7]; CDK4/CycD2, 0.2 µM, read-out: residual activity", "value": 109, "unit": "%"}, {"measurement": "remaining activity at 1 µM", "setting": "340 wild-type kinases [7]; CDK4/CycD2, 1 µM, read-out: residual activity", "value": 103, "unit": "%"}, {"measurement": "remaining activity at 0.2 µM", "setting": "340 wild-type kinases [7]; CDK4/CycD3, 0.2 µM, read-out: residual activity", "value": 70.3, "unit": "%"}, {"measurement": "remaining activity at 1 µM", "setting": "340 wild-type kinases [7]; CDK4/CycD3, 1 µM, read-out: residual activity", "value": 81.7, "unit": "%"}]}]}
